Results: publication PMC6652808, “The Inhibitory Effect of GlmU Acetyltransferase Inhibitor TPSA on Mycobacterium tuberculosis May Be Affected Due to Its Methylation by Methyltransferase Rv0560c” (Frontiers in Cellular and Infection Microbiology, 2019)

Biological target: GlmU (Mycobacterium tuberculosis, UniProt P9WMN3)
Assay: […]; double reciprocal plots; […]
Format: biochemical

Chain of GlmU (P9WMN3 2-495): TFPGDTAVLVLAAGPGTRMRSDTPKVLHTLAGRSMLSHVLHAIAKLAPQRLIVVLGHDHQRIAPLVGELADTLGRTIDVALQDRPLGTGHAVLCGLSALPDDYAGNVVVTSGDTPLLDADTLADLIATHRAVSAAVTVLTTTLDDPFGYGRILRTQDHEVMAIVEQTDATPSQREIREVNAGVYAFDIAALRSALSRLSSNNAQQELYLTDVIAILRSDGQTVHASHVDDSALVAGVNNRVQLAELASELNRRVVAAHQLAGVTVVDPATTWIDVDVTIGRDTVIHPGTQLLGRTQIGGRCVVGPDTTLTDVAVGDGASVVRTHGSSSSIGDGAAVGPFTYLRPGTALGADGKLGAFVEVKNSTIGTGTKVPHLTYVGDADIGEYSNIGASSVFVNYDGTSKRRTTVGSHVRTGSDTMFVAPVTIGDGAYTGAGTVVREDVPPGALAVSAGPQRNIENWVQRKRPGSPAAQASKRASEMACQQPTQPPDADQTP

SMILES: O=C(O)Cc1ccc(C(=O)CSc2nccc(-c3cccs3)n2)s1 [TPSA, 2-[5-(2-{[4-(2-thienyl)-2-pyrimidinyl]sulfanyl}acetyl)-2-thienyl]acetic acid]
- IC50: 5.3 ± 0.48 µM
